{"source": "patent US12054744B2", "about": "“NK cells exhibiting an adaptive phenotype and methods for preparing and for using” (Regents of the University of Minnesota, priority 2015, dated 2024)", "molecules": {"B1": {"name": "catalase: ROS scavenger catalase (Sigma-Aldrich), 200 IU/mL (protein, UniProt P00432 2-527, looked up)", "Catalase": "ADNRDPASDQMKHWKEQRAAQKPDVLTTGGGNPVGDKLNSLTVGPRGPLLVQDVVFTDEMAHFDRERIPERVVHAKGAGAFGYFEVTHDITRYSKAKVFEHIGKRTPIAVRFSTVAGESGSADTVRDPRGFAVKFYTEDGNWDLVGNNTPIFFIRDALLFPSFIHSQKRNPQTHLKDPDMVWDFWSLRPESLHQVSFLFSDRGIPDGHRHMNGYGSHTFKLVNANGEAVYCKFHYKTDQGIKNLSVEDAARLAHEDPDYGLRDLFNAIATGNYPSWTLYIQVMTFSEAEIFPFNPFDLTKVWPHGDYPLIPVGKLVLNRNPVNYFAEVEQLAFDPSNMPPGIEPSPDKMLQGRLFAYPDTHRHRLGPNYLQIPVNCPYRARVANYQRDGPMCMMDNQGGAPNYYPNSFSAPEHQPSALEHRTHFSGDVQRFNSANDDNVTQVRTFYLKVLNEEQRKRLCENIAGHLKDAQLFIQKKAVKNFSDVHPEYGSRIQALLDKYNEEKPKNAVHTYVQHGSHLSAREKANL"}}, "format_in_all_cases": "cell-based, human", "key": {"CD155 on monocytes": {"test_system": "CD155 on monocytes", "assay": "ROS induction in monocytes by H2O2, staining for ROS, CD112 and CD155", "conditions": "H2O2 250 μM", "experimental": "(§1) MDSCs were induced from healthy blood donor PBMC with IL-6 (10 ng/mL) and GM-CSF (10 ng/mL) for 7 days, bead-depleted for HLA-DR, and enriched for CD33. FIG. 13A. MDSCs and freshly isolated monocytes were stained for the antigens shown. One representative example from independent experiments is shown. FIG. 13B. Induced MDSCs were stained for CD155 and analyzed by flow cytometry following overnight treatment with superoxide dismutase (SOD, 200 IU/mL), arginase inhibitor (a-ARG, arginase inhibitor N(ω)-hydroxy-nor-L-arginine, 500 μM), ROS scavenger (Catalase, 200 international units per milliliter (IU/mL)), blocking antibodies against TGF-β (10 μg/mL), iNOS inhibitor (aiNOS, NG-monomethyl-1-arginine, 500 micromolar (μM)), or left untreated. Pooled (n=4) data is shown as mean±SEM, and statistical analysis were done using the Student's t-test. FIG. 13C. Unstimulated monocytes and MDSCs were stained for total ROS and analyzed by flow cytometry. FIG. 13D. Unstimulated or H2O2 (250 μM) monocytes and unstimulated MDSCs were stained for total ROS, CD112, and CD155 and analyzed by flow cytometry. Cells double positive for ROS and CD112 or CD155 are shown. One representative donor of six is shown. One representative isotype control is shown for all groups for simplicity as individual controls were similar between conditions. […]"}, "[1]": {"test_system": "PLZF expression in cord blood-derived CD56^dim NK cells", "assay": "Intracellular PLZF staining of cord blood-derived CD56^dim NK cells after 14 days in culture", "conditions": "high-dose IL-15, IL-21 where added", "experimental": "FIG. 6A. FACS plots of intracellular PLZF expression in cord blood-derived CD56^dim NK cells from a representative donor after 14 days in the indicated culture conditions. FIG. 6B. Cumulative data showing the percentage of PLZF″ NK cells after 14 days in each culture condition from 6 donors. Two independent experiments were performed. Error bars represent SEM.\nMononuclear cells were isolated from whole cord blood by density gradient centrifugation. T cells and B cells were depleted by positive magnetic selection using anti-CD3 and anti-CD19 microbeads, respectively. CD3/CD19-depleted cells were then added to irradiated OP9 cells at a concentration of 5×10^5 cells/well and cultured for 14 days in RPMI media+10% FBS supplemented with either 1 ng/mL IL-15 or 10 ng/mL IL-15 with or without 50 ng/mL IL-21.\nCord blood-derived NK cells were analyzed before culture and after 7 and 14 days of culture by fluorescence activated cell sorting (FACS) using the following extracellular and intracellular antibodies: BV785-conjugated anti-CD3 (BioLegend, San Diego, CA), PE-Cy7-conjugated anti-CD56 (BioLegend, San Diego, CA), BV605-conjugated anti-CD57 (BioLegend, San Diego, CA), APC-conjugated SYK (eBioscience, San Diego, CA), and PE-conjugated anti-PLZF (BD Biosciences, San Jose, CA).\nTranscriptional silencing of the transcription factor promyelocytic leukemia zinc finger (PLZF) is a hallmark of adaptive NK cells that expand in response to CMV infection (Schlums et al. Immunity. 2015; 42(3):443-456). Intracellular staining for PLZF was performed in NK cells from freshly isolated mononuclear cells and from cells that were cultured for 14 days in vitro. Freshly isolated CD56^dimSYK^− NK cells from cord blood were predominantly PLZF-positive (99.3%±0.10). […] Therefore, IL-21 drives down PLZF expression in CD56^dimSYK^− NK cells, causing these cells to acquire adaptive characteristics (FIG. 6)."}, "K562": {"test_system": "K562", "assay": "Chromium (51Cr) release assay against K562", "conditions": "anti-TIGIT 10 ug/mL or catalase 200 IU/mL", "experimental": "Purified NK cells from healthy blood donors were co-cultured with autologous MDSCs or freshly isolated monocytes at a 2:1 ratio in the presence of IL-15 (10 ng/mL) and in the presence or absence of blocking antibodies against TIGIT (10 μg/mL), or catalase (200 IU/mL) for 5 days. Cells were then washed, rested for 4 hours, stimulated for 10 and 30 min with anti-CD16, and stained for pZAP/Syk or pERK1/2 respectively. Representative (FIG. 14A) or cumulative (FIG. 14B) data are shown from 3 independent experiments as mean±SEM. Statistical analysis was done using the Student's t-test. FIG. 14C. […]\nGiven the strong suppressive effect of TIGIT engagement on conventional NK cell function and proliferation, the CD16 induced signaling interaction with TIGIT in NK cells co-cultured with MDSC was analyzed. […]\nFollowing 5 days of co-culture with monocytes or MDSCs in the presence or absence of blocking antibodies against TIGIT (10 ug/mL) or ROS scavenger catalase (200 IU/mL), NK cell cytotoxicity was analyzed by chromium (51 Cr) release assays (4 hours) against K562 (ATCC, Manassas, VA) cells at a 5:1-2.5:1 effector:target ratios. 51 Cr release was measured by a γ scintillation counter (Perkin Elmer, Waltham, MA), and specific target lysis was determined."}, "pZAP70/Syk and pERK1/2": {"test_system": "pZAP70/Syk and pERK1/2", "assay": "Phosflow of pZAP70/Syk and pERK1/2 in NK cells co-cultured with MDSCs", "conditions": "NK cells co-cultured with MDSCs 5 days; anti-TIGIT 10 ug/mL or catalase 200 IU/mL; anti-CD16 stimulation", "experimental": "Purified NK cells from healthy blood donors were co-cultured with autologous MDSCs or freshly isolated monocytes at a 2:1 ratio in the presence of IL-15 (10 ng/mL) and in the presence or absence of blocking antibodies against TIGIT (10 μg/mL), or catalase (200 IU/mL) for 5 days. Cells were then washed, rested for 4 hours, stimulated for 10 and 30 min with anti-CD16, and stained for pZAP/Syk or pERK1/2 respectively. Representative (FIG. 14A) or cumulative (FIG. 14B) data are shown from 3 independent experiments as mean±SEM. Statistical analysis was done using the Student's t-test. FIG. 14C. NK cells from monocyte and MDSC co-cultures in the presence or absence of anti-TIGIT or catalase were washed and incubated with 51 Cr-labeled K562 for 4 hours to assess NK cell cytotoxicity. Representative data from 3 independent experiments is shown as mean±SEM.\nGiven the strong suppressive effect of TIGIT engagement on conventional NK cell function and proliferation, the CD16 induced signaling interaction with TIGIT in NK cells co-cultured with MDSC was analyzed. […] To investigate whether blocking TIGIT or ROS could recover the function of NK cells cultured with MDSCs in cytotoxicity assays, NK cells were cultured with either monocytes or MDSCs were pre-treated with TIGIT blockade or catalase, washed, and then incubated with 51 Cr-labeled K562 cells. […]"}, "CD155 on MDSCs": {"test_system": "CD155 on MDSCs", "assay": "CD155 staining of induced MDSCs after overnight treatment with inhibitors of MDSC pathways", "conditions": "catalase 200 IU/mL overnight", "experimental": "as §1, with “FIG. 13C.” left out, “FIG. 13D.” left out, “cytometry.” for “cytometry. Cells double positive for ROS and CD112 or CD155 are shown. One representative donor of six is shown. One representative isotype control is shown for all groups for simplicity as individual controls were similar between conditions.”\nPurified NK cells or MDS PBMC (FIG. 17) cultured with monocytes or MDSCs for different time points and with different stimuli were resuspended in staining buffer (PBS containing 0.5% human AB serum) and stained with fluorochrome-conjugated antibodies (Table IV). […] All cells were acquired by LSRII and analyzed by FlowJo. […]"}}}
{"molecule": "OO", "note": "[H2O2]", "values": [{"measurement": "expression of CD155 in ROS^+ monocytes", "setting": "CD155 on monocytes", "result": "induce the expression of CD155"}]}
{"molecule": "IL-21: cytokine added at 50 ng/mL to IL-15 cultures", "values": [{"measurement": "decrease in PLZF expression (percentage of PLZF-negative NK cells)", "setting": "[1]; CD56^dimCD57^+SYK^+ NK cells", "result": "12.13%±2.43"}, {"measurement": "decrease in PLZF expression (percentage of PLZF-negative NK cells)", "setting": "[1]; CD56^dimCD57^+SYK^− NK cells", "result": "66.0%±8.86"}, {"measurement": "decrease in PLZF expression (percentage of PLZF-negative NK cells)", "setting": "[1]; CD56^dimCD57^−SYK^+ NK cells", "result": "14.92%±1.80"}, {"measurement": "decrease in PLZF expression (percentage of PLZF-negative NK cells)", "setting": "[1]; CD56^dimCD57^−SYK^− NK cells", "result": "35.82%±7.02"}]}
{"molecule": "B1", "values": [{"measurement": "NK cell cytotoxicity against K562, NK cells cultured alone", "setting": "K562", "result": "Neither anti-TIGIT nor catalase had any effect"}, {"measurement": "NK cell cytotoxicity against K562 after co-culture with MDSCs", "setting": "K562; 5 days, 4 hours 51Cr release", "result": "completely reversed the suppressive effect"}, {"measurement": "phosphorylation of ZAP70/Syk and ERK1/2", "setting": "pZAP70/Syk and pERK1/2", "result": "increased the phosphorylation"}, {"measurement": "decrease in the expression of CD155 on MDSCs", "setting": "CD155 on MDSCs", "result": "55%±23"}]}
